Results from paper PMC5453931, “Cathelicidin-trypsin inhibitor loop conjugate represents a promising antibiotic candidate with protease stability” (Scientific Reports, 2017).
Converted amounts (≈) assume the structure as drawn. Where two headings read alike, the source gives them in different places.

Key:
E. coli 08040726 [1] = type: cell-based; conditions: Gram-negative, two-fold broth microdilution, MH broth, 37 °C, 18 h, mean of three independent experiments in duplicates
Description: (§1) A two-fold broth microdilution method described in our previous paper was used to determine the antimicrobial activities of parental and hybrid peptides. More than 30 strains including Gram-negative bacteria, Gram-positive bacteria and fungi were used in the current assay, in which the standard strains were stored in our lab and the clinical strains were collected from local hospitals. Briefly, bacteria were incubated in Mueller-Hinton broth (MH broth) at 37 °C to exponential phase and diluted to 10^6 CFU/mL. A serial dilution of peptide sample were prepared in 96-well microtiter plates (50 μL) and mixed with equal volume of microbial inoculums (50 μL). The plate was slowly shaken in the microbial incubator, and measured at A595 after incubation at 37 °C for 18 h. The minimal concentrations at which no microbial growth occurred were recorded as MIC (minimal inhibitory concentration) values. The traditional antibiotic ampicillin was used as positive control. The results are shown in an average of the MICs obtained from three independent experiments.

E. coli 08040726 [2] = experiment: MIC, two-fold broth microdilution (second listing of the strain number); type: cell-based; conditions: Gram-negative, MH broth, 37 °C, 18 h, mean of three independent experiments in duplicates
Description: as §1

Aeromonas sobria = experiment: microbe, parasite or virus in culture; type: cell-based; conditions: Aeromonas sobria, 18 h, read-out: MIC Aeromonas sobria
Description: as §1

Aeromonas veronii = experiment: microbe, parasite or virus in culture; type: cell-based; conditions: Aeromonas veronii, 18 h, read-out: MIC Aeromonas veronii
Description: as §1

[3] = test system: Bacillus subtilis 08042313; experiment: microbe, parasite or virus in culture; type: cell-based; conditions: Bacillus subtilis, 08042313, 18 h, read-out: MIC Bacillus subtilis 08042313
Description: as §1

[4] = test system: Candida albicans 08030102; experiment: microbe, parasite or virus in culture; type: cell-based; conditions: Candida albicans, 08030102, 18 h, read-out: MIC Candida albicans 08030102
Description: as §1

Candida glabrata 08A802 = experiment: microbe, parasite or virus in culture; type: cell-based; conditions: Nakaseomyces glabratus, 08A802, 18 h, read-out: MIC Candida glabrata 08A802
Description: as §1

E. Coli 08032823 = experiment: microbe, parasite or virus in culture; type: cell-based; conditions: Escherichia coli, 18 h, read-out: MIC E. Coli 08032823
Description: as §1

Edwardsiella tarda = experiment: microbe, parasite or virus in culture; type: cell-based; conditions: Edwardsiella tarda, 18 h, read-out: MIC Edwardsiella tarda
Description: as §1

[5] = test system: Enterococcus faecium 08052315; experiment: microbe, parasite or virus in culture; type: cell-based; conditions: Enterococcus faecium, 08052315, 18 h, read-out: MIC Enterococcus faecium 08052315
Description: as §1

[6] = test system: Escherichia coli ATCC25922; experiment: microbe, parasite or virus in culture; type: cell-based; conditions: Escherichia coli, ATCC25922, 18 h, read-out: MIC Escherichia coli ATCC25922
Description: as §1

K. Pneumoniae 08031012 = experiment: microbe, parasite or virus in culture; type: cell-based; conditions: Klebsiella pneumoniae, 18 h, read-out: MIC K. Pneumoniae 08031012
Description: as §1

K. Pneumoniae 08040202 = experiment: microbe, parasite or virus in culture; type: cell-based; conditions: Klebsiella pneumoniae, 18 h, read-out: MIC K. Pneumoniae 08040202
Description: as §1

[7] = test system: Nocardia asteroides 08052412; experiment: microbe, parasite or virus in culture; type: cell-based; conditions: Nocardia asteroides, 08052412, 18 h, read-out: MIC Nocardia asteroides 08052412
Description: as §1

P. Aeruginosa 08021015 = experiment: microbe, parasite or virus in culture; type: cell-based; conditions: Pseudomonas aeruginosa, 18 h, read-out: MIC P. Aeruginosa 08021015
Description: as §1

Proteus mirabilis 1376 = experiment: microbe, parasite or virus in culture; type: cell-based; conditions: Proteus mirabilis, 1376, 18 h, read-out: MIC Proteus mirabilis 1376
Description: as §1

S. Aureus 08032615 = experiment: microbe, parasite or virus in culture; type: cell-based; conditions: Staphylococcus aureus, 18 h, read-out: MIC S. Aureus 08032615
Description: as §1

S. Aureus 08032706 = experiment: microbe, parasite or virus in culture; type: cell-based; conditions: Staphylococcus aureus, 18 h, read-out: MIC S. Aureus 08032706
Description: as §1

S. Aureus 08032810 = experiment: microbe, parasite or virus in culture; type: cell-based; conditions: Staphylococcus aureus, 18 h, read-out: MIC S. Aureus 08032810
Description: as §1

S. Maltophilia 090223 = experiment: microbe, parasite or virus in culture; type: cell-based; conditions: Stenotrophomonas maltophilia, 18 h, read-out: MIC S. Maltophilia 090223
Description: as §1

[8] = test system: Shigella dysenteriae 0804203; experiment: microbe, parasite or virus in culture; type: cell-based; conditions: Shigella dysenteriae, 0804203, 18 h, read-out: MIC Shigella dysenteriae 0804203
Description: as §1

Vibrio brasiiensis = experiment: microbe, parasite or virus in culture; type: cell-based; conditions: Vibrio, 18 h, read-out: MIC Vibrio brasiiensis
Description: as §1

Vibrio cholerae = experiment: microbe, parasite or virus in culture; type: cell-based; conditions: Vibrio cholerae, 18 h, read-out: MIC Vibrio cholerae
Description: as §1

Vibrio harveyi = experiment: microbe, parasite or virus in culture; type: cell-based; conditions: Vibrio harveyi, 18 h, read-out: MIC Vibrio harveyi
Description: as §1

E. Coli 08032813 = experiment: MIC, two-fold broth microdilution; type: cell-based; conditions: Escherichia coli, 18 h, read-out: MIC E. Coli 08032813
In short: (§2)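 Two-fold broth microdilution in Mueller-Hinton broth, exponential-phase inoculum at 10^6 CFU/mL mixed 1:1 with peptide dilutions. After 18 h at 37 °C with shaking, A595 read; MIC is the lowest concentration with no growth, averaged over three independent experiments.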

[9] = test system: Staphylococcus epidermidis; experiment: MIC, two-fold broth microdilution; type: cell-based; conditions: Staphylococcus epidermidis, 18 h, read-out: MIC Staphylococcus epidermidis
In short: as §2

Vibrio Parahaemolyticus = experiment: MIC, two-fold broth microdilution; type: cell-based; conditions: Vibrio parahaemolyticus, 18 h, read-out: MIC Vibrio Parahaemolyticus
In short: as §2

08030209 = experiment: microbe, parasite or virus in culture; type: cell-based, Arcyria cinerea; conditions: Arcyria cinerea, 18 h, read-out: MIC Arcyria cinerea 08030209
Description: as §1

E. coli 08040726 [10] = experiment: Bacterial killing kinetic assay, colony counting; type: cell-based
Description: The bacterial killing kinetics of the hybrid peptides against E. coli 08040726 was determined by counting the changes in the viable bacterial clones after peptide treatment. The experiment was carried out according to the method described previously with minor modifications. Fresh colonies of the bacteria were incubated in MH broth at 37 °C for 12 h and diluted to 10^6 CFU/in fresh MH broth. The hybrid peptide was added to the bacterial suspension with a final concentration of 1x and 5x corresponding MICs, and incubated at 37 °C for 0, 10, 20, 30, 45, 60, 90, 120, and 180 mins. At each time point, aliquots (50 μL) were removed and diluted with fresh MH broth for 1000 times. […] of the dilutions were coated on MH agar plates, incubated overnight at 37 °C, and the viable colonies were counted. Ampicillin was used as positive control and sterile deionized water was used as negative control.

CC1(C)S[C@@H]2[C@H](NC(=O)[C@H](N)c3ccccc3)C(=O)N2[C@H]1C(=O)O [Ampicillin, reference compound]
MIC E. coli 08040726 (E. coli 08040726 [1]): 9.38 µg/mL (≈ 26.8 µM)
MIC E. coli 08040726 (E. coli 08040726 [1]; listed as ampicillin): 0.12 µg/mL (≈ 0.343 µM)
MIC E. Coli 08040726 (second line with this strain number) (E. coli 08040726 [2]): — (no detectable activity in MIC assay in dose of 200 µg/mL or in trypsin inhibition assay at concentration of 160 μg/mL)
MIC (Aeromonas sobria): > 200 µg/mL
MIC (Aeromonas veronii): > 200 µg/mL
MIC [3]: 75 µg/mL (≈ 215 µM)
MIC [4]: 18.8 µg/mL (≈ 53.7 µM)
MIC (Candida glabrata 08A802): 18.8 µg/mL (≈ 53.7 µM)
MIC (E. Coli 08032823): > 200 µg/mL
MIC (Edwardsiella tarda): > 200 µg/mL
MIC [5]: > 200 µg/mL
MIC [6]: 4.69 µg/mL (≈ 13.4 µM)
MIC (K. Pneumoniae 08031012): > 200 µg/mL
MIC (K. Pneumoniae 08040202): > 200 µg/mL
MIC [7]: > 200 µg/mL
MIC (P. Aeruginosa 08021015): 9.38 µg/mL (≈ 26.8 µM)
MIC (Proteus mirabilis 1376): 75 µg/mL (≈ 215 µM)
MIC (S. Aureus 08032615): 9.38 µg/mL (≈ 26.8 µM)
MIC (S. Aureus 08032706): 18.8 µg/mL (≈ 53.7 µM)
MIC (S. Aureus 08032810): > 200 µg/mL
MIC (S. Maltophilia 090223): > 200 µg/mL
MIC [8]: 75 µg/mL (≈ 215 µM)
MIC (Vibrio brasiiensis): > 200 µg/mL
MIC (Vibrio cholerae): > 200 µg/mL
MIC (Vibrio harveyi): 37.5 µg/mL (≈ 107 µM)
MIC (E. Coli 08032813): > 200 µg/mL
MIC [9]: > 200 µg/mL
MIC (Vibrio Parahaemolyticus): 18.8 µg/mL (≈ 53.7 µM)
MIC 08030209: > 200 µg/mL
time of killing toward E. coli (E. coli 08040726 [10]; 1xMIC): 6 h
time of killing toward E. coli (E. coli 08040726 [10]; 5xMIC): 3 h
